The values that follow come from US5981577A, “α-methylene peperomins and halogenated derivatives thereof” (Development Center for Biotechnology, priority 1998, dated 1999).

In one assay the test system is MOLT-4. The assay can be described thus: in vitro cytotoxicity by the MTT assay, MOLT-4. It is filed as cell-based, human. The procedure: (§1) Compounds 1-9 were evaluated for in vitro cytotoxicity by the MTT assay, against four types of human tumor cell lines, including COLO 205, HA22T, SKBR3, and MOLT-4.
(§2) COLO 205 was grown as a monolayer in RPMI 1640 (Gibco) with 10% fetal serum (FBS, Hyclon). HA22T/VGH was grown as a monolayer in DMEM/F12 medium (Gibco) supplemented with 10% FBS and […] nonessential amino acid (Gibco, BRL). SKBr3 was grown as a monolayer in DMEM/F12 medium (Gibco) with 10% FCS and 1% penicillin/streptomycin (Gibco, BRL). MOLT-4 was grown as a suspension cell line in RPMI 1640 supplemented with 10% FCS and 1% penicillin/streptomycin (Gibco, BRL). Exponentially growing cell cultures were maintained in a humidified incubator (NAPCO, Model 5410) with an atmosphere of 5% CO2 -95% air at 37° C.
(§3) In principle, the assay is dependent on the cellular reduction of MTT (Sigma Chemical Co.) by the mitochondrial dehydrogenase of viable cells to a dark blue formazan product. The viable cell number is directly proportional to the production of formazan, which can be measured spectrophotometrically following solubilization.
(§4) Single cell suspensions were obtained by mechanical disaggregation of the floating cell line (MOLT-4) and by trypsinization of the monolayer cultures (COLO 205, HA22T/VGH, SKBr3) and counted by trypan blue exclusion. The cell suspensions (180 μl) were added into 96-well microtiter plates (Nunc 67008) using a multichannel pipette, and the incubation was allowed for 24 h.
(§5) Each test compound was dissolved in a 10% DMSO (Sigma, D-8779) and 90% DPBS solution. 20 μl of this solution was dispensed to each microtiter plate well, and diluted to give final concentrations ranging from 100 μg/ml to 0.01 μg/ml by 10-fold dilutions. The cells were then incubated in the presence of the drug (the test compound) for a further 72 h. At the end of this time, 20 μl of a MTT solution (5 mg/ml) was added to each well and the incubation was allowed a further 4 h. After this time, the culture plates containing suspension lines or any detached cells were centrifuged at a low speed of 1000 rpm for 5 min. 170 μl of the culture medium supernatant was removed from each well and replaced by 200 μl of DMSO. After the solubilization of formazans, the optical density was then read by an automated spectrophotometric plate reader (ELISA, Molecular Device Emax) at a wavelength of 545-690 nm. Readings were transferred to a microcomputer and final reports were generated using especially developed software.
(Formazan colour is commonly taken as a measure of viable cells.)

A further assay relates to SKBR3. The assay can be described thus: in vitro cytotoxicity by the MTT assay, SKBR3. It is filed as cell-based, human. The method, then:
as §1, §2, §3, §4, §5

In a further assay the test system is HA22T. The assay can be described thus: in vitro cytotoxicity by the MTT assay, HA22T. To be noted: 72 h. It is filed as cell-based, human. The procedure:
as §1, §2, §3, §4, §5

The next assay concerns COLO 205. As to the kind of experiment: in vitro cytotoxicity by the MTT assay, COLO 205. The format is cell-based, human. The procedure: as §1, §2, §3, §4, §5
In another assay the test system is leukemia cells. To be noted: versus other solid tumor cells; cited from earlier work.
Setting [1] is: Homo sapiens, MOLT-4, MTT, 72 h, read-out: IC50.
The mark [2] stands for this setting: Homo sapiens, SK-BR-3, SKBR3, MTT, 72 h, read-out: IC50.
Where [3] appears, read: Homo sapiens, MTT, read-out: IC50.
[4] abbreviates: Homo sapiens, COLO 205, MTT, 72 h, read-out: IC50.

Values after ≈ are worked out from the molar mass of the structure shown. Where two headings read alike, the source gives them in different places.

For the compound `COc1cc(C(c2cc(OC)c(OC)c(OC)c2Br)[C@@H]2COC(=O)[C@@H]2CBr)c(Br)c(OC)c1OC` (relative stereo) [Compound 4, 2-Bromomethyl-3-[bis(2-bromo-3,4,5-trimethoxy)phenyl]-methyl γ-butyrolactone], the IC50 was 4.9 µg/mL (≈ 7.17 µM) in the assay on MOLT-4 (setting [1]), 4.9 µg/mL (≈ 7.17 µM) in the assay on SKBR3 (setting [2]), 6.4 µg/mL (≈ 9.37 µM) with HA22T (setting [3]) and 4.2 µg/mL (≈ 6.15 µM) in the assay on COLO 205 (setting [4]).
Take `C=C1C(=O)OCC1C(c1cc(OC)c(OC)c(OC)c1Br)c1cc(OC)c(OC)c(OC)c1Br` (stereo not drawn) [Compound 6, 2-Methylene-3-[bis(2-bromo-3,4,5-trimethoxy)phenyl]methyl γ-butyrolactone]: the IC50 in the assay on MOLT-4 (setting [1]) was 4.3 µg/mL (≈ 7.14 µM); with SKBR3 (setting [2]), 3.7 µg/mL (≈ 6.14 µM); in the assay with HA22T (setting [3]), 5.9 µg/mL (≈ 9.8 µM); with COLO 205 (setting [4]) it was 6.7 µg/mL (≈ 11.1 µM).
With “2-Bromomethyl-3-[1-(2(or 6)-bromo-3,4-methylenedioxy)-phenyl-1'-(2-bromo-3,4,5-trimethoxy)phenyl]methyl γ-butyrolactone [Compound 9]”, the half-inhibitory concentration (IC50) in the assay on MOLT-4 (MOLT-4, MTT, 72 h) was 5.8 µg/mL; in the assay with SKBR3 (SKBR3, MTT, 72 h) it was 4.5 µg/mL; with HA22T (MTT) it was 5.7 µg/mL; with COLO 205 (COLO 205, MTT, 72 h) it was 5.6 µg/mL.
Taken in the same sequence, the figures for `COc1cc(C(c2cc(OC)c3c(c2Br)OCO3)C2COC(=O)C2CBr)c(Br)c(OC)c1OC` (stereo not drawn) [Compound 8, 2-Bromomethyl-3-[1-(2(or 6)-bromo-3,4-methylenedioxy-5-methoxy)phenyl-1'-(2-bromo-3,4,5-trimethoxy)phenyl]methyl γ-butyrolactone] were 1.5 µg/mL (≈ 2.25 µM), 4.3 µg/mL (≈ 6.45 µM), 5.8 µg/mL (≈ 8.69 µM) and 6.1 µg/mL (≈ 9.14 µM).
`C=C1C(=O)OCC1C(c1cc(OC)c(OC)c(OC)c1)c1cc(OC)c(OC)c(OC)c1` (stereo not drawn) [Compound 1, 2-Methylene-3-[bis(3,4,5-trimethoxy)phenyl]methyl γ-butyrolactone]: the IC50 turned out to be 2.8 µg/mL (≈ 6.3 µM) in the assay on MOLT-4 (setting [1]), 4 µg/mL (≈ 9 µM) with SKBR3 (setting [2]), 7.1 µg/mL (≈ 16 µM) in the assay with HA22T (setting [3]) and 2.3 µg/mL (≈ 5.17 µM) in the assay with COLO 205 (setting [4]).
Turning to `C=C1C(=O)OCC1C(c1ccc2c(c1)OCO2)c1cc(OC)c(OC)c(OC)c1` (stereo not drawn) [Compound 3, 2-Methylene-3-[1-(3,4-methylenedioxy)phenyl-1'-(3,4,5-trimethoxy)phenyl]methyl γ-butyrolactone], the IC50 was determined as 4.3 µg/mL (≈ 10.8 µM) in the assay with MOLT-4 (setting [1]), 4.6 µg/mL (≈ 11.5 µM) in the assay on SKBR3 (setting [2]), 6.4 µg/mL (≈ 16.1 µM) in the assay with HA22T (setting [3]) and 5.8 µg/mL (≈ 14.6 µM) in the assay on COLO 205 (setting [4]).
Taken in the same sequence, the figures for `C=C1C(=O)OCC1C(c1cc(OC)c(OC)c(OC)c1)c1cc(OC)c2c(c1)OCO2` (stereo not drawn) [Compound 7, 2-Methylene-3-[1-(3,4-methylenedioxy-5-methoxy)phenyl-1'-(3,4,5-trimethoxy)phenyl]methyl γ-butyrolactone] were 3 µg/mL (≈ 7 µM), 4.6 µg/mL (≈ 10.7 µM), 7.1 µg/mL (≈ 16.6 µM) and 4.4 µg/mL (≈ 10.3 µM).
Consider `COc1cccc2c1C(=O)c1c(O)c3c(c(O)c1C2=O)C[C@@](O)(C(=O)CO)C[C@@H]3O[C@H]1C[C@H](N)[C@H](O)[C@H](C)O1` [DOXORUBICIN, reference compound], for which the concentration for half-maximal inhibition (IC50) turned out to be 0.01 µg/mL (≈ 0.0184 µM) in the assay with MOLT-4 (Homo sapiens, MOLT-4, 72 h); 0.1 µg/mL (≈ 0.184 µM) in the assay with SKBR3 (Homo sapiens, SK-BR-3, 72 h); 0.2 µg/mL (≈ 0.368 µM) with HA22T (Homo sapiens); 0.2 µg/mL (≈ 0.368 µM) with COLO 205 (Homo sapiens, COLO 205, 72 h). In addition, in the assay on MOLT-4 (as compared to other solid tumor cells), the “hypersensitivity to MOLT-4 leukemia cell line” value was “hypersensitivity towards leukemia cells as compared to other solid tumor cells”. Besides, the “hypersensitivity towards leukemia cells” value in the assay with leukemia cells was “hypersensitivity towards leukemia cells versus other solid tumor cells”.
Consider `COc1cc(C(c2cc(OC)c(OC)c(OC)c2Br)[C@H]2COC(=O)[C@@H]2CBr)c(Br)c(OC)c1OC` (relative stereo) [Compound 2, 2-Bromomethyl-3-[bis(2-bromo-3,4,5-trimethoxy)phenyl]-methyl γ-butyrolactone], for which the IC50 in the assay with MOLT-4 (setting [1]) is 3.1 µg/mL (≈ 4.54 µM); with SKBR3 (setting [2]), 3.7 µg/mL (≈ 5.42 µM); in the assay with HA22T (setting [3]) it was 6.6 µg/mL (≈ 9.66 µM); in the assay on COLO 205 (setting [4]), 5 µg/mL (≈ 7.32 µM).
On to “2-Methylene-3-[1-(2(or 6)-bromo-3,4-methylenedioxy)-phenyl-1'-(2-bromo-3,4,5-trimethoxy)phenyl]methyl γ-butyrolactone [Compound 5]”, for which the concentration for half-maximal inhibition (IC50) stood at 3.9 µg/mL in the assay with MOLT-4 (MOLT-4, MTT, 72 h); 5.3 µg/mL in the assay on SKBR3 (SKBR3, MTT, 72 h); 5.9 µg/mL in the assay with HA22T (MTT); 6.8 µg/mL with COLO 205 (COLO 205, MTT, 72 h).

One may read the IC50 as the concentration that gives 50% inhibition.
